Laboratory results published in article PMC6278366, “Synthesis and Evaluation of Anticancer Activities of Novel C-28 Guanidine-Functionalized Triterpene Acid Derivatives” (Molecules, 2018).
Counter-ions that a name gives are not always drawn. Like-named read-outs stand apart in the source and are kept apart here.

What was measured:
[1] = test system: Jurkat (T-lymphoblastic leukemia) cells; assay: cells; assay type: cell-based; conditions: for IC50: viable cells; for SI (selectivity towards Jurkat cells): SI = IC50 fibroblasts/IC50 Jurkat cells
Experimental: (§1) Cells (Jurkat, K562, U937, HeLa, HEK293 and normal Fibroblasts) were purchased from Russian Cell Culture Collection (Institute of Cytology of the Russian Academy of Sciences, Saint Petersburg, Russia) and cultured according to standard mammalian tissue culture protocols and sterile technique. Human cell lines HEK293 and HeLa were obtained from the HPA Culture Collections (Salisbury, UK). All cell lines used in the study were tested and shown to be free of mycoplasma and viral contamination.
(§2) Cells were maintained in RPMI 1640 (Jurkat, K562, U937) (Gibco, Thermo Fisher Scientific, Waltham, MA, USA) supplemented with 4 mM glutamine, 10% FBS (Sigma, Burlington, MA, USA) and 100 units/mL penicillin-streptomycin (Sigma). All types of cells were grown in an atmosphere of 5% CO2 at 37 °C. The cells were subcultures at 2–3 days intervals. Adherent cells (HEK293, HeLa, fibroblasts) were suspended using trypsin/EDTA and counted after they have reached 80% confluency. Cells were then seeded in 24 well plates at 5 × 10^4 cells per well and incubated overnight. Jurkat, K562, U937 cells were subcultured at 2 day intervals with a seeding density of 1 × 10^5 cells per 24 well plates in RPMI with 10% FBS.
(§3) Viability (Live/dead) assessment was performed by staining cells with 7-AAD (7-Aminoactinomycin D) (Biolegend, San Diego, CA, USA). Cells were treated of test compounds with six different concentrations (1, 5, 10, 15, 30 and 60 μM). After treatment, cells were harvested, washed 1–2 times with phosphate-buffered saline (PBS) and centrifuged at 400× g for 5 min. Cell pellets were resuspended in 200 μL of flow cytometry staining buffer (PBS without Ca^2+ and Mg^2+, 2.5% FBS) and stained with 5 μL of 7-AAD staining solutionfor 15 min at room temperature in the dark. Samples were acquired on NovoCyteTM 2000 FlowCytometry System (ACEA, San Diego, CA, USA) equipped with 488 nm argon laser. Detection of 7-AAD emission was collected through a 675/30 nm filter in FL4 channel.

[2] = test system: K562 (chronic myeloid leukemia) cells; assay: Cytotoxicity assay (7-AAD viability, flow cytometry), K562; assay type: cell-based, human; conditions: viable cells
Experimental: as §1, §2, §3

[3] = test system: U937 (histiocytic lymphoma) cells; assay: Cytotoxicity assay (7-AAD viability, flow cytometry), U937; assay type: cell-based, human
Experimental: as §1, §2, §3

[4] = test system: HEK293 (embryonic kidney) cells; assay: Cytotoxicity assay (7-AAD viability, flow cytometry), HEK293; assay type: cell-based, human; conditions: at least three experiments in duplicate, viable cells
Experimental: as §1
(§4) HEK293, HeLa cell lines and fibroblasts were cultured as monolayers and maintained in Dulbecco’s modified Eagle’s medium (DMEM, Gibco BRL, Waltham, MA, USA) supplemented with 10% foetal bovine serum and 1% penicillin-streptomycin solution at 37 °C in a humidified incubator under a 5% CO2 atmosphere.
as §2, §3

[5] = test system: HeLa (cervical cancer) cells; assay: Cytotoxicity assay (7-AAD viability, flow cytometry), HeLa; assay type: cell-based, human; conditions: mean ± SE, at least three experiments in duplicate, viable cells
Experimental: as §1, §4, §2, §3

normal human fibroblasts = assay: Cytotoxicity assay (7-AAD viability, flow cytometry), normal fibroblasts; assay type: cell-based; conditions: mean ± SE, at least three experiments in duplicate
Experimental: as §1, §4, §2
as §3, with “Cells were treated of test compounds with six different concentrations (1, 5, 10, 15, 30 and 60 μM).” left out

[6] = read-out: IC50 U937; mean ± SE, at least three experiments in duplicate; viable cells
[7] = Homo sapiens, HEK293, mean ± SE
[8] = Homo sapiens, Jurkat, mean ± SE, at least three experiments in duplicate, read-out: IC50 Jurkat
[9] = Homo sapiens, K562, mean ± SE, at least three experiments in duplicate, read-out: IC50 K562
[10] = Homo sapiens, U-937, mean ± SE, at least three experiments in duplicate; viable cells; read-out: IC50 U937

Compound	IC50 ([1]; Homo sapiens, Jurkat, read-out: IC50 Jurkat, mean ± SE, at least three experiments in duplicate) [µM]	IC50 ([2]; Homo sapiens, K562, read-out: IC50 K562, mean ± SE, at least three experiments in duplicate) [µM]	IC50 [3, 6] [µM]	IC50 [4, 7] [µM]	IC50 ([5]; Homo sapiens, HeLa) [µM]	IC50 (normal human fibroblasts; Homo sapiens, Fibroblast) [µM]	IC50 ([1]; read-out: IC50 Jurkat, mean ± SE, at least three experiments in duplicate) [µM]	IC50 ([2]; read-out: IC50 K562, mean ± SE, at least three experiments in duplicate) [µM]	IC50 ([4]; mean ± SE) [µM]	IC50 [5] [µM]	IC50 (normal human fibroblasts) [µM]	IC50 [1, 8] [µM]	IC50 ([2]; mean ± SE, at least three experiments in duplicate, read-out: IC50 K562) [µM]	IC50 ([3]; mean ± SE, at least three experiments in duplicate; viable cells; read-out: IC50 U937) [µM]	increase in cytotoxic activity against Jurkat cells in comparison with dihydrobetulinic acid 2 [1]	SI (selectivity towards Jurkat cells) [1]	IC50 [2, 9] [µM]	IC50 [3, 10] [µM]
CC(=O)O[C@H]1CC[C@@]2(C)C(CC[C@]3(C)C2CCC2C4C(C(C)C)CC[C@]4(C(=O)NCCN(CCNC(=N)N)CCNC(=N)N)CC[C@]23C)C1(C)C (single isomer, unassigned) [Compound 12a, 3β-N-[2-(N,N′-bis-Ethylgyanidine)-aminoethyl]-3-O-acetyl-lupane-28-amide trifluoroacetate]	22 ± 0.21	89 ± 0.18	28 ± 0.25	112 ± 0.19	101 ± 0.22	149 ± 0.43	–	–	–	–	–	–	–	–	–	–	–	–
CC(=O)O[C@H]1CC[C@@]2(C)C(CC[C@]3(C)C2CCC2C4C(C(C)C)CC[C@]4(C(=O)NCCN(CCNC(=N)N)CCNC(=N)N)CC[C@]23C)C1(C)C (single isomer, unassigned) [Compound 12b, 3β-N-[2-(N,N′-bis-Ethylgyanidine)-aminoethyl]-3-O-acetyl-lupane-28-amide dihydrochloride]	–	–	13 ± 0.06	–	–	–	14 ± 0.37	52 ± 0.26	68 ± 0.29	72 ± 0.34	106 ± 0.23	–	–	–	–	–	–	–
CC(=O)O[C@H]1CC[C@@]2(C)C(CC[C@]3(C)C2CC=C2C4[C@@H](C)[C@H](C)CC[C@]4(C(=O)OCC(CO)(CO)NC(=N)N)CC[C@]23C)C1(C)C (single isomer, unassigned) [Compound 18b, 3β-[2-Guanidine-3-hydroxy-2-(hydroxymethyl)propyl]-3-O-acetyl-urs-12-en-28-oate trifluoroacetate]	–	–	–	13 ± 0.19	11 ± 0.27	47 ± 0.15	–	–	–	–	–	6.8 ± 0.32	40 ± 0.29	2.1 ± 0.41	–	–	–	–
CC(C)C1CC[C@]2(C(=O)NCCCCNC(=N)N)CC[C@]3(C)C(CCC4[C@@]5(C)CCC(=O)C(C)(C)C5CC[C@]43C)C12 (stereo partly drawn) [Compound 9b, N-(4-Butylgyanidine)-3-oxolupane-28-amide dihydrochloride]	–	–	–	92 ± 0.34	81 ± 0.19	179 ± 0.43	–	–	–	–	–	21 ± 0.24	–	–	approximately 3 fold	8.5	57 ± 0.36	14 ± 0.16
CC(=O)O[C@H]1CC[C@@]2(C)C(CC[C@]3(C)C2CCC2C4C(C(C)C)CC[C@]4(C(=O)NCCNC(=N)N)CC[C@]23C)C1(C)C (stereo partly drawn) [Compound 10b, 3β-N-(2-Ethylgyanidine)-3-O-acetyl-lupane-28-amide hydrochloride]	–	–	–	128 ± 0.35	152 ± 0.49	354 ± 0.46	–	–	–	–	–	67 ± 0.21	–	–	–	–	98 ± 0.35	82 ± 0.14
CC(=O)O[C@H]1CC[C@@]2(C)C(CC[C@]3(C)C2CCC2C4C(C(C)C)CC[C@]4(C(=O)NCCCCNC(=N)N)CC[C@]23C)C1(C)C (stereo partly drawn) [Compound 11b, 3β-N-(4-Butylgyanidine)-3-O-acetyl-lupane-28-amide hydrochloride]	–	–	–	98 ± 0.27	106 ± 0.51	117 ± 0.38	–	–	–	–	–	16 ± 0.18	–	–	approximately 3 fold	7.3	55 ± 0.38	63 ± 0.29
CC(=O)O[C@H]1CC[C@@]2(C)C(CC[C@]3(C)C2CCC2C4C(C(C)C)CC[C@]4(C(=O)NCCCN4CCN(CCCNC(=N)N)CC4)CC[C@]23C)C1(C)C (stereo partly drawn) [Compound 13a, 3β-N-{[3-(3-Propylguanidine)piperazinyl]propyl}-3-O-acetyl-lupane-28-amide trifluoroacetate]	–	–	–	74 ± 0.15	79 ± 0.29	104 ± 0.26	–	–	–	–	–	24 ± 0.27	–	–	–	–	11 ± 0.33	18 ± 0.21
CC(C)C1CC[C@]2(C(=O)NCCCCNC(=N)N)CC[C@]3(C)C(CCC4[C@@]5(C)CC[C@H](O)C(C)(C)C5CC[C@]43C)C12 (stereo partly drawn) [Compound 14, 3β-N-(4-Butylgyanidine)-3-hydroxy-lupane-28-amide]	–	–	–	59 ± 0.21	62 ± 0.24	96 ± 0.17	–	–	–	–	–	17 ± 0.34	–	–	approximately 3 fold	5.6	36 ± 0.42	20 ± 0.12
CC(=O)O[C@H]1CC[C@@]2(C)C(CC[C@]3(C)C2CC=C2C4CC(C)(C)CC[C@]4(C(=O)OCC(CO)(CO)NC(=N)N)CC[C@]23C)C1(C)C (stereo partly drawn) [Compound 20b, 3β-[2-Guanidine-3-hydroxy-2-(hydroxymethyl)propyl]-3-O-acetyl-olean-12-en-28-oate trifluoroacetate]	–	–	–	12 ± 0.23	13 ± 0.41	49 ± 0.25	–	–	–	–	–	6.7 ± 0.15	–	–	–	–	20 ± 0.14	6.1 ± 0.43
CC1(C)CC[C@]2(C(=O)O)CC[C@]3(C)C(=CC[C@@H]4[C@@]5(C)CC[C@H](O)C(C)(C)[C@@H]5CC[C@]43C)[C@@H]2C1 [OA, oleanolic acid, reference compound]	–	–	–	247 ± 0.27	258 ± 0.31	694 ± 0.17	–	–	–	–	–	271 ± 0.19	–	–	–	–	235 ± 0.24	186 ± 0.18
C[C@H]1[C@H](C)CC[C@]2(C(=O)O)CC[C@]3(C)C(=CC[C@@H]4[C@@]5(C)CC[C@H](O)C(C)(C)[C@@H]5CC[C@]43C)[C@H]12 [UA, ursolic acid, reference compound]	–	–	–	96 ± 0.22	88 ± 0.35	324 ± 0.16	–	–	–	–	–	23 ± 0.34	–	–	–	–	68 ± 0.11	17 ± 0.12
